The subject of assay [1] is hmNPCs. The assay can be described thus: Dopaminergic differentiation: TH protein expression by Western blot. The assay is classed as cell-based, human. The protocol:
(§1) To determine long-term proliferation, hmNPCs were plated and expanded for 2 passages with or without addition of various agents (see below) to the custom expansion media containing the growth factors EGF and FGF2. Different fetal midbrain tissues were included in this study. At the end of the proliferation period, differentiation of hmNPCs was induced via replacement of expansion media with mitogen-free media containing 1% FCS, 5 µM forskoline (Sigma-Aldrich Chemie GmbH Munich, Germany), and 100 pg/ml IL-1β (Sigma). The differentiation and expansion media were supplemented with different drugs as appropriate. Prior to immunocytochemistry or protein extraction, hmNPCs were allowed to differentiate for 1 week. To determine short-term proliferation via Ki67 immunostaining, the cells were seeded into 24-well plates (70,000 cells/well) and left overnight to rest. P2 receptor agonists (ATP, UTP, ATP + UTP, ADP, ADPβS) were supplied daily for 5 consecutive days. Ki67/nestin double-positive cells were counted in 8 randomly selected fields of nucleotide-treated or untreated samples. For the assessment of MAPK phosphorylation the cells were kept free of mitogens for 2 d prior to addition of the MEK-inhibitor in expansion media. In addition, the MEK-inhibitor was added during the differentiation period 15 min before UTP administration.
UTP, UDP, ATP, ADP, ADPβS and suramin were purchased from Sigma (Sigma-Aldrich Chemie GmbH Munich, Germany). UTP and UDP were applied at different concentrations (1 µM, 10 µM, 100 µM), ATP at 100 µM, ADP at 100 µM, and ADPβS at100 µM. During expansion of the cells, the nucleotides were renewed once a week with every media change, unless otherwise stated. They were applied once at the beginning of the differentiation period. The P2 receptor antagonist suramin (10 µM) was added to expansion media 30 min prior to addition of UTP (100 µM). The stock solution of the MEK1/2 inhibitor U0126 (Promega Corporation, Mannheim, Germany) was prepared in dimethyl sulfoxide (DMSO) at a concentration of 10 mM. The stock solution was then diluted in 0.1 M PBS to obtain a concentration of 1 mM. MEK inhibitor (final concentration 10 µM) was added to mitogen-free expansion media, 15 min before UTP treatment (1 µM) of hmNPCs.
In order to prepare protein extracts, hmNPCs were collected, washed with ice-cold PBS and lysed in buffer [10 mM HEPES-KOH (pH 7.9), 10 mM KCI, 1.5 mM MgCl2, 0.1% NP-40], supplemented with protease inhibitor cocktail (Roche). After a brief centrifugation at 4°C/10 000×g, protein concentrations and protein yield from extracts were determined using the Bradford method (Bio-Rad, Hercules, CA, USA). To preserve the phosphorylation state of proteins, extracts for the MAPK experiment were obtained using the PhosphoSafe™ extraction reagent containing phophatase inhibitors (Novagen). […] Membranes were blocked with 5% (wt/vol) nonfat dry milk in PBS-T (PBS, 0.1% (vol/vol) Tween 20) for 2 h at room temperature and subsequently incubated with the desired primary antibody (diluted in PBS containing 5% non-fat milk and 0.1% Tween 20) overnight at 4 °C with gentle agitation. The membrane was incubated with horseradish peroxidase-coupled secondary antibody for 1 h at room temperature. Chemiluminescence detection was performed by incubating the membranes with SuperSignal-Dura substrate (Pierce Biotechnology, Rockford, U.S.A) followed by analysis on a CCD cooling camera (Fuji LAS-1000plus). The chemiluminescence was quantified using the AIDA, two-dimensional densitometry software (Raytest lsotopenmeb, Straubenhardt, Germany).
(In general: Immunoblotting shows a protein as a band on a membrane.)

The subject of assay [2] is hmNPCs. In words: Protein content of cell extracts (Bradford method). Format: cell-based. The conditions noted are these: Homo sapiens, 336 h, 2 weeks of expansion, read-out: protein yield compared to untreated samples. The protocol:
as §1
In order to prepare protein extracts, hmNPCs were collected, washed with ice-cold PBS and lysed in buffer [10 mM HEPES-KOH (pH 7.9), 10 mM KCI, 1.5 mM MgCl2, 0.1% NP-40], supplemented with protease inhibitor cocktail (Roche). After a brief centrifugation at 4°C/10 000×g, protein concentrations and protein yield from extracts were determined using the Bradford method (Bio-Rad, Hercules, CA, USA). To preserve the phosphorylation state of proteins, extracts for the MAPK experiment were obtained using the PhosphoSafe™ extraction reagent containing phophatase inhibitors (Novagen). […] The chemiluminescence was quantified using the AIDA, two-dimensional densitometry software (Raytest lsotopenmeb, Straubenhardt, Germany). […]

Structures are written as SMILES.

As for `O=c1ccn([C@@H]2O[C@H](COP(=O)(O)OP(=O)(O)OP(=O)(O)O)[C@@H](O)[C@H]2O)c(=O)[nH]1` [UTP, uridine 5'-triphosphate], the TH expression in the assay on hmNPCs [1] (1 µM during 2 weeks of expansion, then 100 µM during 1 week of differentiation) is listed as 529 ± 20%. Further, the “expression of TH” value with hmNPCs [1] (100 µM, one week of differentiation) is listed as “increased”. Further, the activity at 100 µM was 319 ± 5% in the assay on hmNPCs [1] (Homo sapiens, 100 µM, long-term treatment, read-out: TH protein expression in Western blots as compared to controls) and 113% in the assay on hmNPCs [2] (100 µM). Moreover, the activity at 1 µM with hmNPCs [2] (1 µM) came out at 165%. Also, in the assay on hmNPCs [2] (10 µM), the activity at 10 µM amounted to 125%.

The record behind these values is patent EP1897937A1, “Method of culturing NPCs” (NeuroProgen GmbH Leipzig, priority 2006, dated 2008).
